# What was measured:
# nutsedge, yellow = test: Test C pre-/postemergence herbicide test; assay type: in vivo, Cyperus esculentus
# Procedure, shortened: (§1)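 Two application timings ran in parallel with identically formulated test chemicals (non-phytotoxic solvent, surfactant included): spray on seeded loam–sand soil, and spray on emerged plants 2 to 18 cm high. Evaluation at 13 to 15 days compared each species with controls, rated from 0 up to 100.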
# ragweed = test: Test C pre-/postemergence herbicide test; assay type: in vivo, Ambrosia elatior
# Procedure, shortened: as §1
# ryegrass, Italian = test: Test C pre-/postemergence herbicide test; assay type: in vivo, Lolium multiflorum
# Procedure, shortened: as §1
# wheat = test: Test A pre-/postemergence herbicide test; assay type: in vivo, Triticum aestivum; settings: Postemergence
# Procedure, shortened: (§2)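 Directed soil spray to seeded pots (preemergence) or spray onto one- to two-leaf seedlings 2–10 cm tall (postemergence); loam/sand substrate throughout. Evaluated visually after about 10 days against untreated plants, 0 = no effect, 100 = complete control.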
# ducksalad = test: Test B flooded paddy test; assay type: in vivo, Heteranthera limosa; settings: 500 g ai/ha, Flood; scale of 0 to 100 where 0 is no effect and 100 is complete control
# Procedure, shortened: (§3)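 Scoring: visual, compared with untreated controls, 0 = no effect through 100 = complete control, taken 13 to 15 days after treatment in the greenhouse. Compounds had been added to paddy water over soil flooded 3 cm deep at the plants' 2-leaf stage.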
# corn [1] = test: Test A pre-/postemergence herbicide test; assay type: in vivo, Zea mays; settings: Postemergence
# Procedure, shortened: as §2
# lambsquarters = test: Test C pre-/postemergence herbicide test; assay type: in vivo, Chenopodium album
# Procedure, shortened: as §1
# corn [2] = test: Test C pre-/postemergence herbicide test; assay type: in vivo, Zea mays
# Procedure, shortened: as §1
# morningglory = test: Test C pre-/postemergence herbicide test; assay type: in vivo, Ipomoea coccinea
# Procedure, shortened: as §1
# johnsongrass = test: Test C pre-/postemergence herbicide test; assay type: in vivo, Sorghum halepense
# Procedure, shortened: as §1
# rice = test: Test B flooded paddy test; assay type: in vivo, Oryza sativa; settings: 500 g ai/ha, Flood; scale of 0 to 100 where 0 is no effect and 100 is complete control
# Procedure, shortened: as §3
# pigweed = test: Test A pre-/postemergence herbicide test; assay type: in vivo, Amaranthus retroflexus
# Procedure, shortened: as §2
# [3] = Postemergence, 31 g ai/ha, scale 0 to 100 (0 no effect, 100 complete control)
# [4] = Postemergence, 62 g ai/ha, scale 0 (no effect) to 100 (complete control)
# [5] = Postemergence, 250 g ai/ha, scale 0 to 100 (0 no effect, 100 complete control)
# [6] = Preemergence, 31 g ai/ha, scale 0 to 100, 0 is no effect and 100 is complete control
# [7] = Preemergence, 62 g ai/ha, scale 0 to 100 (0 no effect, 100 complete control)
# [8] = Preemergence, 125 g ai/ha, scale 0 to 100 (0 no effect, 100 complete control)
# [9] = Postemergence, 125 g ai/ha, scale 0 to 100 (0 no effect, 100 complete control)
# [10] = 125 g ai/ha, visual rating on 0 to 100 scale (0 no effect, 100 complete control), approx. 10 days
# [11] = 500 g ai/ha, 0 to 100 scale (0 no effect, 100 complete control)
# [12] = Postemergence, 125 g ai/ha, visual rating on 0 to 100 scale (0 no effect, 100 complete control), approx. 10 days
# [13] = Postemergence, 500 g ai/ha, 0 to 100 scale (0 no effect, 100 complete control)
# [14] = Preemergence, 125 g ai/ha, 0 to 100 scale where 0 is no effect and 100 is complete control
# [15] = Preemergence, 500 g ai/ha, visual rating on 0 to 100 scale (0 no effect, 100 complete control)
# [16] = Preemergence, 125 g ai/ha, scale 0 to 100
compound,measurement,setting,value
CN1CC(c2ccc(C(F)(F)F)cc2)C(C(=O)Nc2cccc(F)c2F)C1=O (stereo not shown) [Compound 306],"Plant response rating, Nutsedge, Yellow","nutsedge, yellow; [3]",0
same,"Plant response rating, Nutsedge, Yellow","nutsedge, yellow; [4]",0
same,"Plant response rating, Nutsedge, Yellow","nutsedge, yellow; [5]",0
same,"Nutsedge, Yellow plant response rating","nutsedge, yellow; [6]",0
same,"Nutsedge, Yellow plant response rating","nutsedge, yellow; [7]",0
same,"Plant response rating, Nutsedge, Yellow","nutsedge, yellow; [8]",0
same,"Plant response rating (scale of 0 to 100), Nutsedge, Yellow","nutsedge, yellow; Preemergence, 250 g ai/ha",10
same,"Plant response rating, Ragweed",ragweed; [3],60
same,"Plant response rating, Ragweed",ragweed; [4],55
same,"Plant response rating, Ragweed",ragweed; [9],80
same,"Plant response rating, Ragweed",ragweed; [5],85
same,Ragweed plant response rating,ragweed; [7],75
same,"Plant response rating, Ragweed",ragweed; [8],75
same,"Plant response rating (scale of 0 to 100), Ragweed","ragweed; Preemergence, 250 g ai/ha",80
same,"Plant response rating, Ryegrass, Italian","ryegrass, Italian; [3]",0
same,"Plant response rating, Ryegrass, Italian","ryegrass, Italian; [4]",0
same,"Plant response rating, Ryegrass, Italian","ryegrass, Italian; [9]",5
same,"Plant response rating, Ryegrass, Italian","ryegrass, Italian; [5]",20
same,"Ryegrass, Italian plant response rating","ryegrass, Italian; [7]",40
same,"Plant response rating, Ryegrass, Italian","ryegrass, Italian; [8]",55
same,"Plant response rating (scale of 0 to 100), Ryegrass, Italian","ryegrass, Italian; Preemergence, 250 g ai/ha",70
same,"Plant response rating, Wheat",wheat; [10],50
same,"Plant response rating, Wheat",wheat; [11],60
same,"Plant response rating, Ducksalad",ducksalad,100
same,"Plant response rating, Corn",corn [1]; [10],50
same,"Plant response rating, Corn",corn [1]; [11],70
same,"Plant response rating, Lambsquarters",lambsquarters; [3],60
same,"Plant response rating, Lambsquarters",lambsquarters; [4],70
same,"Plant response rating, Lambsquarters",lambsquarters; [9],90
same,"Plant response rating, Lambsquarters",lambsquarters; [5],75
same,Lambsquarters plant response rating,lambsquarters; [6],55
same,Lambsquarters plant response rating,lambsquarters; [7],65
same,"Plant response rating, Lambsquarters",lambsquarters; [8],75
same,"Plant response rating (scale of 0 to 100), Lambsquarters","lambsquarters; Preemergence, 250 g ai/ha",80
same,"Plant response rating, Corn",corn [2]; [3],0
same,"Plant response rating, Corn",corn [2]; [4],0
same,"Plant response rating, Corn",corn [2]; [9],0
same,"Plant response rating, Corn",corn [2]; [5],20
same,Corn plant response rating,corn [2]; [6],40
same,Corn plant response rating,corn [2]; [7],60
same,"Plant response rating, Corn",corn [2]; [8],80
same,"Plant response rating (scale of 0 to 100), Corn","corn [2]; Preemergence, 250 g ai/ha",75
same,"Plant response rating, Morningglory",morningglory; [3],0
same,"Plant response rating, Morningglory",morningglory; [4],35
same,"Plant response rating, Morningglory",morningglory; [9],65
same,"Plant response rating, Morningglory",morningglory; [5],5
same,Morningglory plant response rating,morningglory; [6],0
same,Morningglory plant response rating,morningglory; [7],35
same,"Plant response rating, Morningglory",morningglory; [8],35
same,"Plant response rating (scale of 0 to 100), Morningglory","morningglory; Preemergence, 250 g ai/ha",35
same,"Plant response rating, Johnsongrass",johnsongrass; [3],0
same,"Plant response rating, Johnsongrass",johnsongrass; [4],0
same,"Plant response rating, Johnsongrass",johnsongrass; [9],0
same,"Plant response rating, Johnsongrass",johnsongrass; [5],0
same,Johnsongrass plant response rating,johnsongrass; [6],35
same,Johnsongrass plant response rating,johnsongrass; [7],55
same,"Plant response rating, Johnsongrass",johnsongrass; [8],80
same,"Plant response rating (scale of 0 to 100), Johnsongrass","johnsongrass; Preemergence, 250 g ai/ha",85
same,"Plant response rating, Rice",rice,50
same,"Plant response rating, Pigweed",pigweed; [12],70
same,"Plant response rating, Pigweed",pigweed; [13],80
same,"Plant response rating, Pigweed",pigweed; [14],80
same,Pigweed plant response rating,pigweed; [15],90
O=C1NCC(c2cccc(Br)c2)C1C(=O)Nc1ccc(F)c(F)c1F (stereo not shown) [Compound 310],"Plant response rating, Nutsedge, Yellow","nutsedge, yellow; [3]",0
same,"Plant response rating, Nutsedge, Yellow","nutsedge, yellow; [4]",0
same,"Plant response rating, Nutsedge, Yellow","nutsedge, yellow; [9]",0
same,"Plant response rating, Nutsedge, Yellow","nutsedge, yellow; [5]",25
same,"Nutsedge, Yellow plant response rating","nutsedge, yellow; [6]",0
same,"Nutsedge, Yellow plant response rating","nutsedge, yellow; [7]",0
same,"Plant response rating, Nutsedge, Yellow","nutsedge, yellow; [16]",0
same,"Plant response rating (scale of 0 to 100), Nutsedge, Yellow","nutsedge, yellow; Preemergence, 250 g ai/ha",0
same,"Plant response rating, Ragweed",ragweed; [3],10
same,"Plant response rating, Ragweed",ragweed; [4],10
same,"Plant response rating, Ragweed",ragweed; [9],20
same,"Plant response rating, Ragweed",ragweed; [5],60
same,Ragweed plant response rating,ragweed; [7],0
same,"Plant response rating, Ragweed",ragweed; [16],5
same,"Plant response rating (scale of 0 to 100), Ragweed","ragweed; Preemergence, 250 g ai/ha",35
same,"Plant response rating, Ryegrass, Italian","ryegrass, Italian; [3]",0
same,"Plant response rating, Ryegrass, Italian","ryegrass, Italian; [4]",0
same,"Plant response rating, Ryegrass, Italian","ryegrass, Italian; [9]",0
same,"Plant response rating, Ryegrass, Italian","ryegrass, Italian; [5]",5
same,"Ryegrass, Italian plant response rating","ryegrass, Italian; [7]",0
same,"Plant response rating, Ryegrass, Italian","ryegrass, Italian; [16]",20
same,"Plant response rating (scale of 0 to 100), Ryegrass, Italian","ryegrass, Italian; Preemergence, 250 g ai/ha",25
same,"Plant response rating, Wheat",wheat; [10],30
same,"Plant response rating, Wheat",wheat; [11],50
same,"Plant response rating, Ducksalad",ducksalad,100
same,"Plant response rating, Corn",corn [1]; [10],20
same,"Plant response rating, Corn",corn [1]; [11],50
same,"Plant response rating, Lambsquarters",lambsquarters; [3],25
same,"Plant response rating, Lambsquarters",lambsquarters; [4],65
same,"Plant response rating, Lambsquarters",lambsquarters; [9],65
same,"Plant response rating, Lambsquarters",lambsquarters; [5],70
same,Lambsquarters plant response rating,lambsquarters; [6],0
same,Lambsquarters plant response rating,lambsquarters; [7],5
same,"Plant response rating, Lambsquarters",lambsquarters; [16],55
same,"Plant response rating (scale of 0 to 100), Lambsquarters","lambsquarters; Preemergence, 250 g ai/ha",80
same,"Plant response rating, Corn",corn [2]; [3],0
same,"Plant response rating, Corn",corn [2]; [4],0
same,"Plant response rating, Corn",corn [2]; [9],60
same,"Plant response rating, Corn",corn [2]; [5],30
same,Corn plant response rating,corn [2]; [6],0
same,Corn plant response rating,corn [2]; [7],0
same,"Plant response rating, Corn",corn [2]; [16],55
same,"Plant response rating (scale of 0 to 100), Corn","corn [2]; Preemergence, 250 g ai/ha",55
same,"Plant response rating, Morningglory",morningglory; [3],10
same,"Plant response rating, Morningglory",morningglory; [4],0
same,"Plant response rating, Morningglory",morningglory; [9],10
same,"Plant response rating, Morningglory",morningglory; [5],70
same,Morningglory plant response rating,morningglory; [6],0
same,Morningglory plant response rating,morningglory; [7],0
same,"Plant response rating, Morningglory",morningglory; [16],5
same,"Plant response rating (scale of 0 to 100), Morningglory","morningglory; Preemergence, 250 g ai/ha",5
same,"Plant response rating, Johnsongrass",johnsongrass; [3],0
same,"Plant response rating, Johnsongrass",johnsongrass; [4],0
same,"Plant response rating, Johnsongrass",johnsongrass; [9],0
same,"Plant response rating, Johnsongrass",johnsongrass; [5],5
same,Johnsongrass plant response rating,johnsongrass; [6],0
same,Johnsongrass plant response rating,johnsongrass; [7],0
same,"Plant response rating, Johnsongrass",johnsongrass; [16],45
same,"Plant response rating (scale of 0 to 100), Johnsongrass","johnsongrass; Preemergence, 250 g ai/ha",75
same,"Plant response rating, Rice",rice,0
same,"Plant response rating, Pigweed",pigweed; [12],0
same,"Plant response rating, Pigweed",pigweed; [13],0
same,"Plant response rating, Pigweed",pigweed; [14],40
same,Pigweed plant response rating,pigweed; [15],40

# Reference: patent publication US10294202B2, “Pyrrolidinones as herbicides” (FMC Corporation, priority 2013, dated 2019)
